Experimental data published in patent publication US20120148604A1, “TRP INHIBITORS AND USES THEREOF” (TRANSPOSAGEN BIOPHARMACEUTICALS, INC., priority 2009, published 2012).
“Also recorded” adds a separate entry of the source. Read-outs that look alike come from different tables or passages of the source.

Tests used:
[1] = STZ induced diabetes, von Frey filament mechanical pain threshold; assay type: in vivo, rat; conditions: STZ treated diabetic control rats vs non-treated control rats
Procedure: Von Frey Filament Test (Chang model): The effect of compounds on mechanical allodynia can be determined by the von Frey filament test in rats with a tight ligation of the L-5 spinal nerve: a model of painful peripheral neuropathy. The surgical procedure is performed as described by Kim et al., Pain 50: 355-363 (1992). A calibrated series of von Frey filaments are used to assess mechanical allodynia (Chaplan et al., J. Neurosci. Methods 53: 55-63 (1994)). Filaments of increasing stiffness are applied perpendicular to the midplantar surface in the sciatic nerve distribution of the left hindpaw. The filaments are slowly depressed until bending occurred and are then held for 4-6 seconds. Flinching and licking of the paw and paw withdrawal on the ligated side are considered positive responses.
Since many patients with diabetes mellitus also suffer from hyperalgesia-derived neuropathic pain, the Trpc4(−/−) rats were studied for this indication. Groups of control and Trpc4 knockout rats were treated with streptozotocin (STZ) in order to induce diabetes. Rats were defined to be in a diabetic state if hyperglycemia and glucosuria occurred. The mechanical induced von Frey filament method was again used to establish altered pain response. When STZ non-treated control rats were compared to STZ diabetic control rats the pain response to mechanical induction was very drastic. […]

[2] = test system: TRPC4; conditions: HEK cells, cited from earlier work
[3] = Paclitaxel induced cold allodynia, acetone cold response; assay type: in vivo, rat
Procedure: Cancer patients who are treated with chemotherapy drugs such as paclitaxel often display sensory abnormalities and symptoms of neuropathic pain such as sudden unexplainable pain attacks. In order to study the effects of cation channels on paclitaxel induced pain, Trpc4−/− rats were treated with the anti-cancer drug. Since one of the major symptoms of patients who are treated with paclitaxel is cold allodynia, control and Trpc4−/− rats were exposed to paclitaxel and tested for acetone cold response. Previously control non-paclitaxel treated and paclitaxel treated WT rats were studied for differences in cold allodynia. Based on established cold score calculations the non-treated rats scored an average of 8 while the paclitaxel treated WT rats scored an average of 15. […] When control and Trpc4−/− treated rats were compared the difference in pain sensitivity was dramatic. […] The reversion to nearly wild type cold allodynia score was remarkable in Trpc4 knockout rats.

[4] = test system: TRPC4; conditions: dominant negative N-term fragment; cited from earlier work

## CN(N=O)C(=O)N[C@H]1C(O)O[C@H](CO)[C@@H](O)[C@@H]1O (mixture of isomers) [STZ, streptozotocin]
[1]
  decrease of threshold for pain: 40%

## C=O [Formalin]
Formalin 1.5% 50 μl sc upper lip
  duration of nociceptive activity (rubbing face and flipping the head): 25 to 30 min
Wild type rats, Formalin 1.5% 50 μl sc
  start of the activity: 10 to 12 s

## Cl.NCCCCCCNS(=O)(=O)c1cccc2c(Cl)cccc12 [W-7, N-(6-Aminohexyl)-5-chloro-1-naphthalenesulfonamide hydrochloride]
[2]; hydrochloride
  effect on TRPC4 current: significantly decreases TRPC4 current; also recorded: inhibited

## Clc1ccc(C(c2ccc(Cl)cc2)n2cc[n+](CC(OCc3ccc(Cl)cc3Cl)c3ccc(Cl)cc3Cl)c2)cc1 (stereo not drawn) [calmidazolium]
[2]
  effect on TRPC4 current: not inhibited
[2]; listed as CMZ
  effect on TRPC4 current: unable to inhibit TRPC4 current

## CC(=O)O[C@H]1C(=O)[C@@]2(C)[C@H]([C@H](OC(=O)c3ccccc3)[C@]3(O)C[C@H](OC(=O)[C@H](O)[C@@H](NC(=O)c4ccccc4)c4ccccc4)C(C)=C1C3(C)C)[C@]1(OC(C)=O)CO[C@@H]1C[C@@H]2O [paclitaxel]
[3]; paclitaxel treated Trpc4 knockout rats
  cold score: 9
[3]; paclitaxel treated WT rats, non-treated rats scored 8
  cold score (average): 15

B1: first ankyrin domain: dominant negative N-term fragment of TRPC4, residues 61-121 (rat and mouse sequence in b219) (protein, UniProt Q9QUQ5 61-121, looked up, fragment)
chain: ININCIDPLGRTALLIAIENENLELIELLLSFNVYVGDALLHAIRKEVVGAVELLLNHKKP
[4]
  suppression of TRPC4 currents: successfully suppress TRPC4 currents
